Measurements: the SangsterLogP compilation

SMILES | logP
COC1(NC(=O)CSc2snc(O)c2C(=O)O)C(=O)N2C(C(=O)O)=C(CSc3nnnn3C)CSC21 (stereo unspecified) | 1.43
CNC(=O)C(C(=O)O)=C1SC(C(=O)NC2(OC)C(=O)N3C(C(=O)O)=C(CSc4nnnn4C)CSC32)S1 (stereo unspecified) | 1.82
CCSC(C(=O)O)=C1SC(C(=O)NC2(OC)C(=O)N3C(C(=O)O)=C(CSc4nnnn4C)CSC32)S1 (stereo unspecified) | 2.86
COC1(NC(=O)C2SC(C(C(=O)O)C(=O)N(C)C)S2)C(=O)N2C(C(=O)O)=C(CSc3nnnn3C)CSC21 (stereo unspecified) | 2.01
COC1(NC(=O)C2SC(C(C(=O)O)C(=O)c3ccccc3)S2)C(=O)N2C(C(=O)O)=C(CSc3nnnn3C)CSC21 (stereo unspecified) | 2.98
COC(C(=O)O)=C1SC(C(=O)NC2(OC)C(=O)N3C(C(=O)O)=C(CSc4nnnn4C)CSC32)S1 (stereo unspecified) | 2
COC1(NC(=O)C2SC(=C(C(=O)O)S(N)(=O)=O)S2)C(=O)N2C(C(=O)O)=C(CSc3nnnn3C)CSC21 (stereo unspecified) | 1.25
COC1(NC(=O)C2SC(=C(SC)C(=O)O)S2)C(=O)N2C(C(=O)O)=C(CSc3nnnn3C)CSC21 (stereo unspecified) | 2.6
COC1(NC(=O)C2SC(=C(C#N)C(=O)O)S2)C(=O)N2C(C(=O)O)=C(CSc3nnnn3C)CSC21 (stereo unspecified) | 1.73
COC1(NC(=O)C2SC(=CC(=O)O)S2)C(=O)N2C(C(=O)O)=C(CSc3nnnn3C)CSC21 (stereo unspecified) | 2.19
COC1(NC(=O)C2SC(=C(C)C(=O)O)S2)C(=O)N2C(C(=O)O)=C(CSC3=NN=NN(C)C3)CSC21 (stereo unspecified) | 2.66
